Where “and” joins values, the source holds several entries; their conditions need not be identical. Identical values can stand only once. Ends that are not written are not given here. * marks the point of attachment. Myristoyl = CCCCCCCCCCCCCC(=O)*
Legend:
[1] = tested on: Zucker diabetic fatty rats; test: Observation of side effects / tolerability in ZDF rats
[2] = Solubility in water on reconstitution; format: physicochemical; conditions: compared with unconjugated peptide; reconstituted in DMSO first
Method: Synthetic peptides. The peptides were synthesized at Lifetein Inc. (Hillborough, NJ). The lyophilized peptides were aliquoted and stored (in the presence of desiccant) at −40° C. prior to use. On the day of intraperitoneal (IP) administration, an aliquot of lyophilized unconjugated peptide was reconstituted in sterile saline at the appropriate concentration of 2 mg/kg. Reconstituted peptide was prepared fresh before each injection. […] The final concentration of DMSO in sterile saline was 10%. The vehicle, DMSO in sterile saline, was tested independently and had no effect on blood pressure when administered as an IP injection.

[3] = tested on: male Zucker diabetic fatty rats; test: Tail cuff blood pressure in male ZDF rats after IP peptide; format: in vivo, rat; conditions: two 13-week-old male ZDF rats, myristolated 2.5 mg/kg single IP
[4] = tested on: male Zucker diabetic fatty rats; test: as above; format: in vivo, rat; conditions: for systolic blood pressure-lowering at 4 hours post-administration vs baseline: Experiment 2: two male ZDF rats; for Acute Peak diastolic blood pressure-lowering / Acute Peak mean arterial blood pressure-lowering / Acute Peak systolic blood pressure-lowering / Duration of Action, diastolic BP / Duration of Action, mean arterial BP / Duration of Action, systolic BP: two male ZDF rats
Method: Animals. Male ZDF and lean (+/?) Zucker rats were obtained from Charles River Laboratories (Kingston, NY) at approximately 6-7 weeks of age. The rats were single housed upon arrival, without enrichment. Rats were acclimatized for two weeks prior to experimental procedures. Rats were provided ad libitum access to food and water and maintained in a 12 h light/dark cycle with lights on at 0630. The procedures occurred during the light phase of the cycle. Blood pressure testing (following acute or chronic administration of the decoy peptides) was conducted in three separate cohorts of animals.
Cohort 1: Three 25-week-old male ZDF and three, age-matched, male Zucker lean rats (ZLR) treated with IP decoy peptide 2 (ZDF) vs saline (vehicle) (ZLR).
Cohort 2: Eleven-week old male ZDF (n=5) and Zucker lean rats (n=4) treated with IP decoy peptide 2.
Cohort 3: Twelve 8.5-week old male Zucker diabetic fatty rats were randomly assigned to one of three treatment groups (n=4/group). The rats underwent baseline blood pressure determinations using tail-cuff plethysmography technique. Next, the animals who expressed baseline hypertension, i.e., blood pressure >135/85, received either a 1 mg/kg intraperitoneal injection of pegylated decoy peptide 2 (n=3); a 2 mg/kg intraperitoneal dose of a scrambled decoy peptide 2 (n=4); or vehicle (i.e., sterile saline) (N=4). Blood pressure was determined at 15 minutes, 45 minutes, 4 hours, 8 hours, 24 hours, 30 and 48 hours following single IP injection. One week later, the same two groups of ZDF rats received either 0.75 mg/kg IP pegylated decoy peptide 2, 2 mg/kg scrambled decoy peptide 2, or sterile saline; and blood pressure was determined at similar timepoints. Two weeks later, two groups of 12-week-old ZDF rats (n=6/group) including those that had previously received acute peglyated decoy peptide 2 or scrambled decoy peptide 2 were treated on an alternative daily schedule with IP, free decoy peptide 2 (2 mg/kg) vs IP scrambled decoy peptide 2 (2 mg/kg) continuously for 13 weeks until sacrifice at 25 weeks of age. Body weight was determined immediately before sacrifice and after perfusion; and hearts were excised and weighed for determination of the heart-to-(perfused) body weight ratio.
(§1) Blood pressure monitoring. Tail cuff blood pressure measurement was performed using an automated CODA noninvasive blood pressure system (Kent Scientific, Torrington, CT). Rats were placed on an insulated warming platform in a well-heated room to ensure proper body temperature. Cuff monitors were provided in different sizes to accommodate rats of different ages and having different body weights. After the animal was positioned in the clear plastic restraint holder, the appropriate-sized cuff was slid over the rat's tail.
Statistical Analysis. Comparisons were made using Student's unpaired t-test (Tables 3-6, 9 and FIG. 18) or time series analysis (Tables 7, 8, FIG. 16).
as §1, with “CT.).” for “CT).”
Experiment 1: Four 12-week-old male ZDF rats were randomly assigned to receive either a single IP injection of a scrambled sequence (SEQ ID NO: 7) of Peptide ID #2 (SEQ ID NO: 2) at 1 mg/kg concentration or a 1 mg/kg concentration of myristolated Peptide ID #2 (SEQ ID NO: 9). Blood pressure was determined using tail cuff plethysmography (Kent Scientific) at 1, 4, 6, 48 and 72 hours post-injection.
Experiment 2: Six 12-week-old male ZDF rats were assigned to each of three treatment groups (N=2/group). […]

[5] = 11-week-old male ZDF rats (N=4/group), single IP Myr-peptide 2 2 mg/kg vs scrambled 1 mg/kg (reference = 0), over 6 days
[6] = Experiment 1: myristolated 1 mg/kg single IP
[7] = four 11-12-week-old male ZDF rats, single 2 mg/kg IP
[8] = male ZDF rats before single 2 mg/kg IP, unconjugated: two 25-week-old, myristolated: four 11-12-week-old
[9] = male ZDF rats, single 2 mg/kg IP, unconjugated: two 25-week-old, myristolated: four 11-12-week-old
[10] = single 2 mg/kg IP vs 1 mg/kg scrambled
[11] = myristolated 1 mg/kg single IP, listed as Myristolated Peptide 2
[12] = myristolated 1.5 mg/kg single IP
[13] = myristolated 1.5 mg/kg single IP, listed as Myristolated Peptide 2
[14] = myristolated 2.0 mg/kg single IP
[15] = myristolated 2.0 mg/kg single IP, listed as Myristolated Peptide 2
[16] = myristolated 2.5 mg/kg single IP
[17] = myristolated 2.5 mg/kg single IP, listed as Myr Peptide 2
[18] = myristolated 2.5 mg/kg single IP, listed as Myristolated Peptide 2

For “Myr-SCLLADDN (Myristoyl-SCLLADDN) [myristolated Peptide ID 2]”, the “adverse physical or behavioral effects” value ([1]; Experiment 1: male ZDF rats, myristolated 1 mg/kg IP) was “No discernable adverse physical or behavioral effects”, the “untoward physical or behavioral effect” value ([1]; ten ZDF rats (Expt 1 and 2), up to 14-21 days after single IP) was “None of the ten rats tested (N=4 in Expt 1; N=6 in Expt 2) experienced any untoward physical or behavioral effect” and the “solubility in water, in words” value [2] was “lower solubility in water”. The “duration of persistent blood pressure lowering” value ([3]; listed as myristolated decoy Peptide 2) was 9 days, the “duration of persistent blood pressure lowering” value ([3]; listed as myristolated decoy peptide 2) was 8 days and the “Estimate: diastolic blood pressure lowering effect vs scrambled peptide (time series)” value [4, 5] was −12.0471. The “Estimate: systolic blood pressure lowering effect vs scrambled peptide (time series)” value [4, 5] was −17.4393, the “effect on diastolic blood pressure, in words” value ([4]; Experiment 1: male ZDF rats (N=2/group), 1 mg/kg single IP) was “rapid-onset diastolic blood pressure lowering” and the “effect on systolic blood pressure, in words” value [4, 6] was “significantly lower at 1, 4, 6 hours and 48 hours post-baseline, but not at 72 hours”. The “time span of significantly reduced mean arterial blood pressure” value [4, 6] was 1 to 72 h, the “persistence of systolic blood pressure-lowering” value ([4]; Experiment 2: myristolated 1 mg/kg IP, one value per rat) was 48 to 72 h and 96 to 168 h and the “persistence of declines in diastolic and mean arterial blood pressure” value ([4]; Experiment 2: myristolated 1 mg/kg IP, rat 1 / rat 2) was 2 to 3 days and 4 to 7 days. For the same substance, the “persistence of systolic blood pressure-lowering” value ([4]; Experiment 2: myristolated 1.5 mg/kg IP) was “up to 168 hours”, the “persistence of blood pressure-lowering” value ([4]; Experiment 2: myristolated 1.5 mg/kg IP, both rats) was “up to 7 days” and the “systolic blood pressure-lowering at 4 hours post-administration vs baseline” value ([4]; myristolated 1 mg/kg IP) was 8-11%. For the same substance, the “systolic blood pressure-lowering at 4 hours post-administration vs baseline” value ([4]; myristolated 1.5 mg/kg IP) was 13%, the “mean diastolic BP, 72 hours” value [4, 7] was 80 and the “mean diastolic BP, 6 days” value [4, 7] was 85. The “mean diastolic BP, 7 days” value [4, 7] was 94, the “mean systolic BP, 72 hours” value [4, 7] was 126 and the “mean systolic BP, 6 days” value [4, 7] was 127. For the same substance, the “mean systolic BP, 7 days” value [4, 7] was 142, the “mean diastolic BP, Baseline” value [4, 8] was 97 and the “mean systolic BP, Baseline” value [4, 8] was 146. For the same substance, the “mean diastolic BP, 24 hours” value [4, 9] was 76, the “mean diastolic BP, 48 hours” value [4, 9] was 82 and the “mean systolic BP, 24 hours” value [4, 9] was 117. The “mean systolic BP, 48 hours” value [4, 9] was 123, the “duration of blood pressure lowering” value ([4]; male ZDF rats, single IP 2 mg/kg, myristic acid conjugated) was no less than 6 days and the “mean lowering in diastolic blood pressure compared to scrambled Peptide 2” value [4, 10] was 12 mm Hg. The “mean lowering in systolic blood pressure compared to scrambled Peptide 2” value [4, 10] was 17.4 mm Hg, the “blood pressure-lowering effects, in words” value ([4]; single IP doses ranging from 1.0-2.5 mg/kg) was “potent, dose-dependent, and in many cases unexpectedly quite long-lasting” and the “time until systolic and diastolic blood pressure returned to baseline” value ([4]; two 13-week-old male ZDF rats, myristolated 2.5 mg/kg single IP) was 9 days. The “Acute Peak diastolic blood pressure-lowering” value ([4]; myristolated 1 mg/kg single IP) was 10-12%, the “Acute Peak mean arterial blood pressure-lowering” value ([4]; myristolated 1 mg/kg single IP) was 6-8% and the “Acute Peak systolic blood pressure-lowering” value ([4]; myristolated 1 mg/kg single IP) was 4-10%^. For the same substance, the “Duration of Action, diastolic BP” value ([4]; myristolated 1 mg/kg single IP) was 4 to 6 days, the “Duration of Action, mean arterial BP” value ([4]; myristolated 1 mg/kg single IP) was 4 to 6 days and the “Acute Peak diastolic blood pressure-lowering” value [4, 11] was 10-12%. For the same substance, the “Acute Peak mean arterial blood pressure-lowering” value [4, 11] was 6-8%, the “Duration of Action, systolic BP” value [4, 11] was 4 to 7 days and 7 days and the “Acute Peak diastolic blood pressure-lowering” value [4, 12] was 11-19%. For the same substance, the “Acute Peak mean arterial blood pressure-lowering” value [4, 12] was 14%, the “Acute Peak systolic blood pressure-lowering” value [4, 12] was 10% and the “Duration of Action, diastolic BP” value [4, 12] was 7 days. For the same substance, the “Duration of Action, mean arterial BP” value [4, 12] was 7 days, the “Duration of Action, systolic BP” value [4, 12] was 7 days and the “Acute Peak diastolic blood pressure-lowering” value [4, 13] was 19%. For the same substance, the “Acute Peak mean arterial blood pressure-lowering” value [4, 13] was 14%, the “Acute Peak diastolic blood pressure-lowering” value [4, 14] was 22-25% and the “Acute Peak systolic blood pressure-lowering” value [4, 14] was 7-15%. The “Acute Peak mean arterial blood pressure-lowering” value ([4]; myristolated 2.0 mg/kg single IP, listed as Myr Peptide 2) was 14-22%, the “Acute Peak diastolic blood pressure-lowering” value [4, 15] was 20-25% and the “Acute Peak mean arterial blood pressure-lowering” value [4, 15] was 14-22%. The “Acute Peak systolic blood pressure-lowering” value [4, 15] was 15%, the “Acute Peak systolic blood pressure-lowering” value [4, 16] was 20-23% and the “Duration of Action, diastolic BP” value [4, 16] was 9 days. For the same substance, the “Duration of Action, mean arterial BP” value [4, 16] was 9 days, the “Duration of Action, systolic BP” value [4, 16] was 9 days and the “Acute Peak diastolic blood pressure-lowering” value [4, 17] was 18-35%. The “Acute Peak mean arterial blood pressure-lowering” value [4, 17] was 28-30%, the “Acute Peak diastolic blood pressure-lowering” value [4, 18] was 18-36% and the “Acute Peak mean arterial blood pressure-lowering” value [4, 18] was 19-30%. For the same substance, the “Acute Peak systolic blood pressure-lowering” value [4, 18] was 23%.
